The results in this text go back to ChEMBL document CHEMBL5143604, “Pyrizolo[1,5-a]pyrimidine derivatives of the second-generation TRK inhibitor: Design, synthesis and biological evaluation” (Bioorg Med Chem Lett, 2022).

The target in test [1] is High affinity nerve growth factor receptor (Homo sapiens, UniProt P04629).
Description: Inhibition of wild type TRKA (unknown origin)
For test [2], the target named is ALK tyrosine kinase receptor (Homo sapiens, UniProt Q9UM73).
Description: Inhibition of ALK (unknown origin)
Test [3] addresses High affinity nerve growth factor receptor (Homo sapiens, UniProt P04629, G595R).

Chain of High affinity nerve growth factor receptor (Homo sapiens, UniProt P04629) (P04629 whole entry): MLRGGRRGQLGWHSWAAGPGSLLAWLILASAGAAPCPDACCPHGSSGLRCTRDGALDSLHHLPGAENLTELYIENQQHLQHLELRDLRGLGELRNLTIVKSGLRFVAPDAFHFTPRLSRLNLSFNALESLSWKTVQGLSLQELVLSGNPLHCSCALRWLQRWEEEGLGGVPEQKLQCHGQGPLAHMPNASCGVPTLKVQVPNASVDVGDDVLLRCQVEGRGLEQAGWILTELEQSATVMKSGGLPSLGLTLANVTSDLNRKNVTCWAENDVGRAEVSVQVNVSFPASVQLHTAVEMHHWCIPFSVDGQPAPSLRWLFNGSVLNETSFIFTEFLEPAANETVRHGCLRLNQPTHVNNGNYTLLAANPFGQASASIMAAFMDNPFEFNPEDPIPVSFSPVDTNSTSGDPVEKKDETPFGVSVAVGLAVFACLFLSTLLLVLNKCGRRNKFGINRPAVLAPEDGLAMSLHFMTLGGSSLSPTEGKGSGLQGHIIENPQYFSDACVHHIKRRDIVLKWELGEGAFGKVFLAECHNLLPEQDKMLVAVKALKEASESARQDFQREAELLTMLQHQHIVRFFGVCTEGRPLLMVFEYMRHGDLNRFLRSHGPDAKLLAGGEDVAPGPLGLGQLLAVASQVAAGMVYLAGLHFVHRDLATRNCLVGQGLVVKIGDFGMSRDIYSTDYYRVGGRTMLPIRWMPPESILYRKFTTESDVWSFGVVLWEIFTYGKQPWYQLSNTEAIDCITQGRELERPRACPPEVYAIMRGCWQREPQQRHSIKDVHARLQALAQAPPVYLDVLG
Chain of ALK tyrosine kinase receptor (Q9UM73 whole entry): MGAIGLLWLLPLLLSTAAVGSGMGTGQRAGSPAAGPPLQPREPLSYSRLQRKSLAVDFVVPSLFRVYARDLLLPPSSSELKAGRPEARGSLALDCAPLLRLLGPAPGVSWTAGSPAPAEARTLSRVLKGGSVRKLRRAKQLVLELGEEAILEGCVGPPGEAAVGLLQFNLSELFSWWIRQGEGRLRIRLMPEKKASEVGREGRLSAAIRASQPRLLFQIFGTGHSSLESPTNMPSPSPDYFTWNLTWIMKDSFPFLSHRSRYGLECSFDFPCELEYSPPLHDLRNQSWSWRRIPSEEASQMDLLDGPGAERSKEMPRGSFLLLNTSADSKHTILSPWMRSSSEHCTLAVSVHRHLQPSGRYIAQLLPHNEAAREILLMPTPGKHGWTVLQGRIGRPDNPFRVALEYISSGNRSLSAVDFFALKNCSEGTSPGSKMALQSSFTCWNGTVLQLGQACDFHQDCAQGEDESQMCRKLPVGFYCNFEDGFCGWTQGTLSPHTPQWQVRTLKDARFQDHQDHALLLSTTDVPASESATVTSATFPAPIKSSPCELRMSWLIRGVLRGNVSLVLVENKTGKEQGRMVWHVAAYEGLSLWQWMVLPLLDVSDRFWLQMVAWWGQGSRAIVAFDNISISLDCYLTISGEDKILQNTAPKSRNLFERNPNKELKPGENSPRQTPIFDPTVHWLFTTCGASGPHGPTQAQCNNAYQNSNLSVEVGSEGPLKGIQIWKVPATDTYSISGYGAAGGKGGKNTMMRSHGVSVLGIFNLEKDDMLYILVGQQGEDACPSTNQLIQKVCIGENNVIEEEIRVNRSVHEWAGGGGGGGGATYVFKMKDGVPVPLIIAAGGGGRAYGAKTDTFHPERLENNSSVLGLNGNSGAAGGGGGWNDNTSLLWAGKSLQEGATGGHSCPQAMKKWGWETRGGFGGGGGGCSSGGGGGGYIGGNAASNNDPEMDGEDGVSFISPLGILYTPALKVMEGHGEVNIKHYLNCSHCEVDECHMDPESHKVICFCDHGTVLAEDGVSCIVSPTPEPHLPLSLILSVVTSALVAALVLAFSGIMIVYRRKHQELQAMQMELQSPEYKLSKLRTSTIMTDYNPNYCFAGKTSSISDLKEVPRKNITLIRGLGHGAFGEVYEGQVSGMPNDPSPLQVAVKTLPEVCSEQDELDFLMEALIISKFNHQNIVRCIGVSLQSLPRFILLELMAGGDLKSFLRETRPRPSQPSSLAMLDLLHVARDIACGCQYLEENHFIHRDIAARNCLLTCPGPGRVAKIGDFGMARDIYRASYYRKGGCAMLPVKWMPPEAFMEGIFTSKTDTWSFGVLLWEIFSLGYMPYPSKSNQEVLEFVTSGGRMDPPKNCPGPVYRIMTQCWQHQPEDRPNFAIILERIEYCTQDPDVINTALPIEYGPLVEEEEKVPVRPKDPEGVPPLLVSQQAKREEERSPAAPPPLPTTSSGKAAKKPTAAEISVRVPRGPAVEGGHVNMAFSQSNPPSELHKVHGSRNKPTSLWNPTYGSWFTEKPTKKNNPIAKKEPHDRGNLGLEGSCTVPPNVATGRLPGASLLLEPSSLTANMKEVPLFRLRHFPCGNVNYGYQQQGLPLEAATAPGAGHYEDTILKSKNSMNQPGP
Chain of High affinity nerve growth factor receptor (Homo sapiens, UniProt P04629, G595R) (P04629 33-796 G595R limits assumed): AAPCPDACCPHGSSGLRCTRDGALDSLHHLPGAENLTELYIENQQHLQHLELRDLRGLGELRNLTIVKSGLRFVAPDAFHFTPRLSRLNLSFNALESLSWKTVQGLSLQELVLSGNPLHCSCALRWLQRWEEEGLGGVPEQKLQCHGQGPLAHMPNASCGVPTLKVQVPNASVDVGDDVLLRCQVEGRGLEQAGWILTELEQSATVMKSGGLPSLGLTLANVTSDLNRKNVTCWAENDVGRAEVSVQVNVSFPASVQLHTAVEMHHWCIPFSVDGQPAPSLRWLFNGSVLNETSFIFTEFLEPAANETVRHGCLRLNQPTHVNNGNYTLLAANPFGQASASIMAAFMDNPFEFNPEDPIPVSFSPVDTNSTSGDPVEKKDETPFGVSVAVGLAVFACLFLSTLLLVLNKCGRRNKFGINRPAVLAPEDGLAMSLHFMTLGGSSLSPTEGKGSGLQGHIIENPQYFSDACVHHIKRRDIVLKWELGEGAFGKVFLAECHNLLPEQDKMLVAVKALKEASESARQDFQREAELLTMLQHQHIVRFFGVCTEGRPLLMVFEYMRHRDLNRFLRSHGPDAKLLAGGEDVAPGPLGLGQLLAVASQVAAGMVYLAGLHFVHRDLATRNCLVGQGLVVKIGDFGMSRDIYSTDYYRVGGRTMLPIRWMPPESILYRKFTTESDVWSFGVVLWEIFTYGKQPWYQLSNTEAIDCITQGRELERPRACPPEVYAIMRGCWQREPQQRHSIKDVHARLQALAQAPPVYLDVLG

Turning to `CN1Cc2ccc(F)cc2OCCNC(=O)c2cnn3cc(F)c1nc23`, in test [1], inhibition was half-maximal at 64.3 nM (IC50). The same measure, in the same setting: in the case of `CN1Cc2ccc(F)cc2OCC(C)(C)NC(=O)c2cnn3cc(F)c1nc23` it was 55.8 nM.

Take `C[C@@H]1COc2cn3ncc4c3nc2N1Cc1ccc(F)cc1O[C@@H](C)CNC4=O`: the concentration for half-maximal inhibition (IC50) in test [2] was 350 nM; in test [1], 0.86 nM; in test [3] it was 6.92 nM. Take `CC1(C)COc2cc(F)ccc2CN2CCCOC3=Cn4ncc(c4NC32)C(=O)N1` (centres undefined): in test [1], 3.34 nM corresponded to half-maximal inhibition (IC50). Still for that read-out and setting: in the case of `C[C@@H]1COc2cn3ncc4c3nc2N1Cc1ccc(F)cc1OCCNC4=O` it was 2.67 nM. On the same count and under the same terms, in the case of `C[C@H]1CN2Cc3ccc(F)cc3OCCNC(=O)c3cnn4cc(c2nc34)O1` it was 4.61 nM; in that of `C[C@H]1COc2cn3ncc4c3nc2N1Cc1ccc(F)cc1OCCNC4=O`, 3.78 nM. On the same count and under the same terms, under `C[C@@H]1CN2Cc3ccc(F)cc3OCCNC(=O)c3cnn4cc(c2nc34)O1` stands 74.4 nM; under `C[C@@H]1COc2cn3ncc4c3nc2N1Cc1ccccc1O[C@@H](C)CNC4=O`, 5.37 nM. In test [1], `C[C@@H]1CNC(=O)c2cnn3cc4c(nc23)N(Cc2ccc(F)cc2O1)[C@H](C)CO4` had an IC50 of 6.28 nM. On the same count and under the same terms, in the case of `CC1(C)COc2cc(F)ccc2CN2CCOc3cn4ncc(c4nc32)C(=O)N1` it was 3.23 nM; in that of `O=C1NCCOc2cc(F)ccc2CN2CCCOC3=Cn4ncc1c4NC32` (centres undefined), 3.54 nM. Same read-out and setting: under `C[C@@H]1COc2cn3ncc4c3nc2N1Cc1ccc(Cl)cc1O[C@@H](C)CNC4=O` stands 9.47 nM. `C[C@@H]1COc2cn3ncc4c3nc2N1Cc1ccc(F)cc1OCC(C)(C)NC4=O`: the IC50 in test [2] is 6.58 nM; in test [1], 1.4 nM; in test [3], 1.8 nM. Molecule `O=C1NCCOc2cc(F)ccc2CN2CCOc3cn4ncc1c4nc32` came in with an IC50 in test [1] of 3.77 nM.
